Laboratory results: article PMC10342150, “Artesunate Dry Emulsion Formulation Combined with Antibiotics for Treatment of Helicobacter pylori Infections: In Vitro/In Vivo Evaluation” (International Journal of Molecular Sciences, 2023)

Columns and labels:
H. pylori PremSS1 = test: In vivo efficacy against H. pylori in infected mice (bacterial culture and qPCR of stomach); set-up: species or system C57BL/6 mice; conditions: oral, single dose per day for 14 days; ADEF 40 mg/kg, amox 30 mg/kg, PPI 150 mg/kg; bacterial culture and qPCR (Figure 8A,B)
From the text: Animals: A mouse model of H.-pylori-induced disease using pre-murine Sydney strain-1 (PremSS1) in mice C57BL/6 was extensively used in Helicobacter research. The persistence of mouse colonization, distribution, and long-lasting infection is attributable to the strain’s capabilities. For these reasons mice C57BL/6 were selected in this study. In fact, male mice with «specific pathogen-free» status (CHU of Bordeaux, Amélie Raba-Léon place, Bordeaux Cedex) at 6 weeks of age were housed in an acclimatization room for 1 week before experimentation.
Mouse gavage with H. pylori: Mice were fasted the day before the gavage days. They were force-fed with approximately 10^8 H. pylori PremSS1 in 100 µL of phosphate-buffered saline in the morning and then placed in a cage for the rest of the day under normal conditions. The gavages were carried out on three consecutive days. A bacteria viability test was accomplished post-gavage by platting a bacterial pellet on «Poly-house-made» agar for 24 h. […]
Each quarter of the mouse stomach was placed in a tube that was RNASE and DNASE free, containing 200 μL of physiological water. […] The remaining 90 µL were extracted for H. pylori quantification using qPCR. […] All samples were prepared in duplicate, and the results were expressed as cfu/mg of stomach tissue. […]

[1] = set-up: method as in PMID 17694524; conditions: cited from earlier work
in vivo = conditions: male, Sprague-Dawley, rat, plasma, po, 150 mg/kg
Procedure: (§1) The objective of this study was to investigate the pharmacokinetic (PK) profile of ADEF after a single oral (gavage) administration to rats at the following doses: • Low dose: 25 and 50 mg/kg of ADEF; • Mid dose: 100 mg/kg of ADEF; • High dose: 150 mg/kg of ADEF.
(§2) For comparative study, native artesunate was also included in this study, but only at a high dose of 150 mg/kg.
(§3) After a 1-week acclimation period, ADEF was administered orally to rats, and blood samples were collected at various time intervals (5, 10, 15, 30, 45, and 60 min) using K2EDTA tubes as anticoagulants. The collected tubes were then placed on wet ice. Subsequently, the samples were centrifuged at 1000× g for 10 min at 4 °C. The resulting plasma was recovered and stored frozen at temperatures below or equal to −60 °C for further analysis.
(§4) Non-compartmental analysis of the test item and its metabolite concentrations in plasma was performed by using the Phoenix® WinNonlin®6 6.4 software.

[2] = Pharmacokinetics after single oral (gavage) administration in rats; conditions: different doses (up to 150 mg/kg)
Procedure: as §1, §2, §3, §4

[3] = Solubility in simulated gastric fluid (SGF, pH 1.5); assay type: physicochemical; conditions: 0.5 g in 10 mL SGF pH 1.5, 36.5 °C, 30 min stirring
Procedure: An amount of 0.5 g of native artesunate and ADEF was dispersed in 10 mL of simulated gastric fluid (SGF, pH 1.5). All solutions were incubated at 36.5 °C under mild shaking (100 rev/min) in a G24 Environmental Incubator Shaker (New Brunswick Scientific Co., Edison, NJ, USA) for 30 min.

Helicobacter pylori = test: Agar disk diffusion assay; assay type: cell-based; conditions: paper disks, ~20 mg/mL
Procedure: Practically, impregnated paper disks with a determined concentration (~20 mg/mL) of ADEF were deposited on the surface of a standardized culture medium previously inoculated with a calibrated inoculum of a pure culture of H. pylori. After incubation, the Petri dishes were examined, and the diameters of the zones of inhibition surrounding the disks were measured. The obtained values were thereafter compared to the critical values of the different antimicrobial standards to determine the clinical categorization (resistant, intermediate, sensitive).

[4] = set-up: method as in earlier work; conditions: artesunate in acidic form; cited from earlier work

SMILES	Effect against H. pylori in infected mice (H. pylori PremSS1)	Stability in aqueous, acidic and basic media [1]	AUC(0-t) (in vivo) [ng·h/mL]	Cmax (in vivo) [ng/mL]	Tmax (in vivo) [min]	half-life (in vivo) [min]	Mortality or abnormal signs [2]	Solubility in simulated gastric fluid [3]	Inhibition zone (Helicobacter pylori)	Water solubility [4]
COc1ccnc(C[S+]([O-])c2nc3ccc(OC(F)F)cc3[nH]2)c1OC (centres unmarked) [PPI, pantoprazole]	did not exhibit a significant effect									
C[C@H]1[C@H](OC(=O)CCC(=O)O)O[C@@H]2O[C@@]3(C)CC[C@H]4[C@H](C)CC[C@@H]1[C@@]24OO3 [Native Artesunate, artesunate]		unstable	211	701	15	18	no mortality or abnormal signs	did not dissolve	two distinct zones were observed	about 0.68 % (w/w)
CC1(C)S[C@@H]2[C@H](NC(=O)[C@H](N)c3ccc(O)cc3)C(=O)N2[C@H]1C(=O)O [amox, amoxicillin]	did not exhibit a significant effect									
